Measurements from patent US11298422B2, “Treating tumors with TTFields and an aurora kinase inhibitor” (Novocure Limited, priority 2018, dated 2022).
pIC50: −log10 of the molar value. Like-named read-outs stand apart in the source and are kept apart here.

Tests used:
U87-MG = assay: Cytotoxicity assay (cell count at end of treatment), U87-MG; format: cell-based, human; conditions: for cytotoxic effect, Observed TTFields + AZD1152 / cytotoxic effect, AZD1152: 72 h; for cytotoxic effect, Observed TTFields + AZD1152: percentage of control; for cytotoxic effect, Expected: expected value for the combination; for cytotoxic effect, AZD1152: number of cells as percentage of control
Method: (§1) The effects of the combined treatment of TTFields and the Aurora B kinase inhibitor AZD1152 was tested in 3 different glioma cell lines: U87-MG, U87-MG^shp53 and U-251. TTFields ([…], 200 kHz) were applied for 72 hours using the Inovitro system. AZD1152 was added to the media in concentrations of up to 100 nmol/L. Cell counts, cell cycle, and clonogenic potential were determined at the end of treatment. Formation of multinuclear cells was determined using microscopic images of cells stained with crystal violet.
(§2) The effects of the combined treatment of TTFields and AZD1152 was tested using the following human glioma cell lines: U87-MG (ATCC), U-251 (ECACC) and U87-mG^shp53 (provided by Dr. Achim Temme). All cells were grown in a humidified incubator supplied with 5% CO2. Cells were maintained in EMEM, supplemented with 10% FBS, 2 mmol/L glutamine, Pen-Strep solution (100 units/ml Penicillin and 0.1 mg/ml Streptomycin), 1 mmol/L sodium pyruvate and 1% NEAA. U87-MG^shp53 cells were maintained under selection with […] geneticin. AZD1152 was obtained from Sigma, Israel.
(§3) TTFields (1.6 V/cm RMS, 200 kHz) were applied for 72 hours using the Inovitro system. At the end of treatment, inhibition of tumor cell growth was analyzed quantitatively based on cell count. Clonogenic survival of U87-MG, U87-MG^shp53 and U-251 was tested by plating triplicates of 300 cells/dish in 6 wells dishes. After 2-3 weeks, cells were stained with crystal violet and the number of clones was quantified. Overall effect was calculated by multiplying the percentage of surviving cells at the end of treatment with the percentage of colonies formed vs. control.

U-251 = assay: Overall effect based on the clonogenic assay, U-251; format: cell-based, human; conditions: for overall effect, Observed TTFields + AZD1152 / overall effect, AZD1152: 72 h; for overall effect, Observed TTFields + AZD1152: clonogenic assay; for overall effect, Expected: expected value for the combination; for overall effect, AZD1152: based on the clonogenic assay
Method: as §1, §2, §3
The overall effect for U-251 cells was determined based on the clonogenic assay. Response to TTFields application alone led to about 50% reduction in the clonogenic potential of U-251 cells (FIG. 1E).

U87-MG^shp53 [1] = assay: Cytotoxicity assay (cell count at end of treatment), U87-MG^shp53; format: cell-based, human; conditions: for cytotoxic effect, Observed TTFields + AZD1152 / cytotoxic effect, AZD1152: 72 h; for cytotoxic effect, Observed TTFields + AZD1152: percentage of control; for cytotoxic effect, Expected: expected value for the combination; for cytotoxic effect, AZD1152: number of cells as percentage of control
Method: as §1, §2, §3

[2] = patients with advanced solid tumors, cited from earlier work
U87-MG^shp53 [3] = assay: Overall effect (surviving cells x colonies formed vs. control), U87-MG^shp53; format: cell-based, human; conditions: for dosage required to achieve an overall effect of 38%: U87-MG^shp53 (FIG. 1D); for overall effect, Observed TTFields + AZD1152 / overall effect, AZD1152: 72 h; for overall effect, Expected: expected value for the combination; for overall effect, AZD1152: surviving cells x colonies vs. control
Method: as §1, §2, §3

U87-MG^shp53 [4] = assay: Flow cytometry analysis of DNA contents (ploidy), U87-MG^shp53; format: cell-based, human; conditions: 72 h
Method: For cell cycle analysis, cells were removed with Trypsin immediately after 72 h treatment, washed twice with ice-cold PBS with 1% FBS and fixed with 70% ice-cold ethanol for 30 min. After fixation, cells were washed twice with ice-cold PBS with 1% FBS, pelleted and incubated in PBS containing 10 μg/ml RNase and 7.5 μg/ml7-AAD (Sigma-Aldrich) at 37° C. for 30 min. Cell cycle distribution was then quantified using the EC800 flow cytometer (Sony Biotechnology, Japan).
FIGS. 3A-D and 4A-E show U87-MG and U87-MG^shp53 FACS analysis of DNA contents following treatment with TTFields and AZD1152. More specifically, FIGS. 3A-D depict increased polyploidy in U87-MG cells following the combined treatment of TTFields (200 kHz, 1.6 V/cm RMS) at various AZD1152 concentrations; and FIGS. 4A-E depict increased polyploidy in U87-MG^shp53 cells following the combined treatment of TTFields (200 kHz, 1.6 V/cm RMS) at various AZD1152 concentrations.
Tables 1 and 2 depict, for U87-MG and U87-MG^shp53 respectively, numeric data corresponding to FIGS. 3 and 4. The columns in tables 1 and 2 represent the DNA copy number (e.g., 2n is the normal number of chromosomes (23 pairs=46), 4n is twice the number of chromosomes, etc.).

[5] = U87-MG^shp53, AZD1152 25 nM + TTFields 200 kHz 1.6 V/cm RMS
[6] = U87-MG^shp53, AZD1152 25 nM + TTFields
[7] = U87-MG^shp53, AZD1152 25 nM alone
[8] = U87-MG^shp53, AZD1152 50 nM + TTFields 200 kHz 1.6 V/cm RMS
[9] = U87-MG^shp53, AZD1152 50 nM + TTFields
[10] = U87-MG^shp53, AZD1152 50 nM alone
[11] = U87-MG^shp53, AZD1152 100 nM + TTFields 200 kHz 1.6 V/cm RMS
[12] = U87-MG^shp53, AZD1152 100 nM + TTFields
[13] = U87-MG^shp53, AZD1152 100 nM alone
[14] = U87-MGShp53, AZD1152 12.5 nM + TTFIELDS 200 kHz 1.6 V/cm RMS
[15] = U87-MGShp53, AZD1152 12.5 nM, CONTROL (no TTFields)
[16] = U87-MGShp53, AZD1152 25 nM + TTFIELDS 200 kHz 1.6 V/cm RMS
[17] = U87-MGShp53, AZD1152 25 nM, CONTROL (no TTFields)
[18] = U87-MGShp53, AZD1152 50 nM + TTFIELDS 200 kHz 1.6 V/cm RMS
[19] = U87-MGShp53, AZD1152 50 nM, CONTROL (no TTFields)

## CCN(CCCOc1ccc2c(Nc3cc(CC(=O)Nc4cccc(F)c4)n[nH]3)ncnc2c1)CCOP(=O)(O)O [AZD1152, Barasertib]
U87-MG; AZD1152 25 nM + TTFields 200 kHz 1.6 V/cm RMS
  cytotoxic effect, Observed TTFields + AZD1152: 13.5%
U87-MG; AZD1152 25 nM + TTFields
  cytotoxic effect, Expected: 23.5%
U87-MG; AZD1152 25 nM alone
  cytotoxic effect, AZD1152: 46%
U87-MG; AZD1152 50 nM + TTFields 200 kHz 1.6 V/cm RMS
  cytotoxic effect, Observed TTFields + AZD1152: 8.5%
U87-MG; AZD1152 50 nM + TTFields
  cytotoxic effect, Expected: 13.0%
U87-MG; AZD1152 50 nM alone
  cytotoxic effect, AZD1152: 25.5%
U87-MG; AZD1152 100 nM + TTFields 200 kHz 1.6 V/cm RMS
  cytotoxic effect, Observed TTFields + AZD1152: 4.0%
U87-MG; AZD1152 100 nM + TTFields
  cytotoxic effect, Expected: 4.8%
U87-MG; AZD1152 100 nM alone
  cytotoxic effect, AZD1152: 9.5%
U87-MG; TTFields 200 kHz 1.6 V/cm RMS 72 hours, 2-way ANOVA, p<0.001
  cytotoxic effect of combined treatment of TTFields and AZD1152: significant enhancement of the cytotoxic effect
U-251; U-251, AZD1152 6.25 nM + TTFields 200 kHz 1.6 V/cm RMS
  overall effect, Observed TTFields + AZD1152: 8.0%
U-251; U-251, AZD1152 6.25 nM + TTFields
  overall effect, Expected: 40.7%
U-251; U-251, AZD1152 6.25 nM alone
  overall effect, AZD1152: 74%
U-251; U-251, AZD1152 12.5 nM + TTFields 200 kHz 1.6 V/cm RMS
  overall effect, Observed TTFields + AZD1152: 0.7%
U-251; U-251, AZD1152 12.5 nM + TTFields
  overall effect, Expected: 8.3%
U-251; U-251, AZD1152 12.5 nM alone
  overall effect, AZD1152: 15%
U-251; U-251, AZD1152 25 nM + TTFields 200 kHz 1.6 V/cm RMS
  overall effect, Observed TTFields + AZD1152: 0.2%
U-251; U-251, AZD1152 25 nM + TTFields
  overall effect, Expected: 1.1%
U-251; U-251, AZD1152 25 nM alone
  overall effect, AZD1152: 2%
U-251; U-251, AZD1152 50 nM + TTFields 200 kHz 1.6 V/cm RMS
  overall effect, Observed TTFields + AZD1152: 0.2%
U-251; U-251, AZD1152 50 nM + TTFields
  overall effect, Expected: 1.1%
U-251; U-251, AZD1152 50 nM alone
  overall effect, AZD1152: 2%
U-251; U-251, AZD1152 100 nM + TTFields 200 kHz 1.6 V/cm RMS
  overall effect, Observed TTFields + AZD1152: 0.2%
U-251; U-251, AZD1152 100 nM + TTFields
  overall effect, Expected: 0.8%
U-251; U-251, AZD1152 100 nM alone
  overall effect, AZD1152: 1.5%
U87-MG^shp53 [1]; Homo sapiens, U87-MG^shp53, AZD1152 alone, 72 hours
  pIC50: ~7.30
U87-MG^shp53 [1]; [5]
  cytotoxic effect, Observed TTFields + AZD1152: 22.5%
U87-MG^shp53 [1]; [6]
  cytotoxic effect, Expected: 42.2%
U87-MG^shp53 [1]; [7]
  cytotoxic effect, AZD1152: 71%
U87-MG^shp53 [1]; [8]
  cytotoxic effect, Observed TTFields + AZD1152: 10.5%
U87-MG^shp53 [1]; [9]
  cytotoxic effect, Expected: 27.7%
U87-MG^shp53 [1]; [10]
  cytotoxic effect, AZD1152: 46.5%
U87-MG^shp53 [1]; [11]
  cytotoxic effect, Observed TTFields + AZD1152: 4.5%
U87-MG^shp53 [1]; [12]
  cytotoxic effect, Expected: 8.9%
U87-MG^shp53 [1]; [13]
  cytotoxic effect, AZD1152: 15%
U87-MG^shp53 [1]; U87-MG^shp53, 2-way ANOVA, p<0.001
  cytotoxic effect of combined treatment of TTFields and AZD1152: significant enhancement of the cytotoxic effect
[2]; administered as two 2-h infusions (110 mg/day, days 1, 2, 15 and 16)
  maximum tolerated AZD1152 dose: 220 mg
[2]; as a 48-h continuous infusion
  maximum tolerated AZD1152 dose: 150 mg
U87-MG^shp53 [3]; combined with TTFields
  dosage required to achieve an overall effect of 38%: 25 nM
U87-MG^shp53 [3]; in the absence of TTFields
  dosage required to achieve an overall effect of 38%: 70 nM
U87-MG^shp53 [3]; [5]
  overall effect, Observed TTFields + AZD1152: 39.0%
U87-MG^shp53 [3]; [6]
  overall effect, Expected: 51.0%
U87-MG^shp53 [3]; [7]
  overall effect, AZD1152: 79%
U87-MG^shp53 [3]; [8]
  overall effect, Observed TTFields + AZD1152: 13.0%
U87-MG^shp53 [3]; [9]
  overall effect, Expected: 33.9%
U87-MG^shp53 [3]; [10]
  overall effect, AZD1152: 52.5%
U87-MG^shp53 [3]; [11]
  overall effect, Observed TTFields + AZD1152: 2.5%
U87-MG^shp53 [3]; [12]
  overall effect, Expected: 7.1%
U87-MG^shp53 [3]; [13]
  overall effect, AZD1152: 11%
U87-MG^shp53 [3]; with respect to the dosage giving the same overall effect in the absence of an alternating electric field, 'can often be'
  reduction of dosage required for a given level of overall effect when combined with TTFields: at least 50%
U87-MG^shp53 [4]; [14]
  DNA copy number 2n: 44%
  DNA copy number 4n: 34%
  DNA copy number 8n: 19%
U87-MG^shp53 [4]; [15]
  DNA copy number 2n: 46%
  DNA copy number 4n: 29%
  DNA copy number 8n: 6%
  DNA copy number 16n: 1%
  DNA copy number 32n: 0%
U87-MG^shp53 [4]; [16]
  DNA copy number 2n: 10%
  DNA copy number 4n: 36%
  DNA copy number 8n: 29%
U87-MG^shp53 [4]; [17]
  DNA copy number 2n: 48%
  DNA copy number 4n: 25%
  DNA copy number 8n: 6%
  DNA copy number 16n: 1%
  DNA copy number 32n: 0%
U87-MG^shp53 [4]; [18]
  DNA copy number 2n: 2%
  DNA copy number 4n: 21%
  DNA copy number 8n: 38%
U87-MG^shp53 [4]; [19]
  DNA copy number 2n: 40%
  DNA copy number 4n: 33%
  DNA copy number 8n: 11%
  DNA copy number 16n: 3%
  DNA copy number 32n: 0%
